The source of these data is PubChem BioAssay (NCI).

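Test compounds were applied to cells in 96-well plates for 48 hours at 5 doses. GI50 = concentration required for 50% inhibition of growth. TGI denotes the concentration required for complete inhibition of growth.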

Among the test systems are 786-0 renal; SNB-19 CNS; SF-539 CNS; RPMI-8226 leukemia; HOP-62 NSCLC; SR leukemia; NCI-H460 lung; HOP-92 NSCLC; UACC-257 melanoma; MALME-3M melanoma.
Assay in all cases: growth of human tumour cells (NCI), 48 h

In the case of `C=C1CC[C@@H]2[C@](C)(COC(C)=O)[C@H](OC(C)=O)CC[C@@]2(C)[C@@H]1CC(Nc1ccc(S(=O)(=O)Nc2nccc(C)n2)cc1)C1=CCOC1=O` (some centres undefined), the GI50 in the test on 786-0 renal was 2.27 µM; with SNB-19 CNS, 6.3 µM; with SF-539 CNS it was 2.07 µM; with RPMI-8226 leukemia it was 1.95 µM; with HOP-62 NSCLC, 10.3 µM; in the test on SR leukemia it was 0.753 µM. Further, the values for the GI50 in the test on NCI-H460 lung, in the test on HOP-92 NSCLC and with UACC-257 melanoma were 4.88 µM, 6.24 µM and 4.8 µM, respectively. For the same molecule, the TGI in the test on 786-0 renal was 5.06 µM; in the test on SNB-19 CNS, 20.7 µM; in the test on SF-539 CNS, 4.73 µM; in the test on RPMI-8226 leukemia, 6.84 µM; in the test on HOP-62 NSCLC it was 22.5 µM; in the test with SR leukemia it was more than 100 µM. The TGI worked out at 18.3 µM in the test with NCI-H460 lung, 18.9 µM in the test on HOP-92 NSCLC and 16.4 µM in the test with UACC-257 melanoma.

With `Cc1nc2sc(C(=O)Nc3ccccc3)c(N)c2cc1C(=O)/C=C/c1ccccc1`, the GI50 in the test with 786-0 renal was 1.51 µM; in the test with SNB-19 CNS, 1.89 µM; with SF-539 CNS, 1.88 µM; in the test on RPMI-8226 leukemia it was 1.67 µM; in the test with MALME-3M melanoma, 2.35 µM; in the test on HOP-62 NSCLC, 2.15 µM. Further, the GI50 in the test on SR leukemia was 1.38 µM; in the test with NCI-H460 lung it was 1.96 µM; in the test with HOP-92 NSCLC it was 2.07 µM; with UACC-257 melanoma it was 2.11 µM. In addition, the TGI in the test on 786-0 renal was found to be 3.01 µM; with SNB-19 CNS it was 4.17 µM; in the test on SF-539 CNS, 3.56 µM; with RPMI-8226 leukemia it was 5.2 µM; with MALME-3M melanoma it was 7.71 µM; in the test on HOP-62 NSCLC, 5.13 µM. Moreover, the TGI came to 11.7 µM in the test with SR leukemia, 4.15 µM with NCI-H460 lung, 7.07 µM in the test on HOP-92 NSCLC and 5.29 µM in the test with UACC-257 melanoma.

As to `Nc1cc(N)c(N)cc1N`, the GI50 in the test on 786-0 renal was 2.27 µM; in the test with SNB-19 CNS, 3.42 µM; in the test with SF-539 CNS it was 2.17 µM; in the test on RPMI-8226 leukemia, 3.48 µM; with MALME-3M melanoma it was 1.79 µM; with HOP-62 NSCLC it was 1.76 µM. The GI50 in the test with SR leukemia was 2.56 µM; with NCI-H460 lung, 10.8 µM; in the test on HOP-92 NSCLC it was 12 µM; in the test on UACC-257 melanoma, 1.55 µM. Moreover, the TGI is 4.99 µM in the test with 786-0 renal; 14.3 µM in the test with SNB-19 CNS; 5.88 µM with SF-539 CNS; 17.5 µM in the test with RPMI-8226 leukemia; 3.45 µM in the test with MALME-3M melanoma; 3.35 µM in the test with HOP-62 NSCLC. Moreover, the TGI stood at 7.66 µM with SR leukemia, 26.2 µM in the test with NCI-H460 lung, 27.2 µM in the test with HOP-92 NSCLC and 3.05 µM in the test on UACC-257 melanoma.

As for `COc1ccc2c3c(c(=O)n(C)c2c1OC)C=CC(C)(C)O3`, the TGI in the test on 786-0 renal was more than 100 µM; in the test with SNB-19 CNS, more than 100 µM; in the test on SF-539 CNS, more than 100 µM; in the test on RPMI-8226 leukemia it was 29.3 µM; in the test on MALME-3M melanoma it was more than 100 µM; in the test with HOP-62 NSCLC it was more than 100 µM. The TGI in the test on SR leukemia was 24.9 µM; in the test on HOP-92 NSCLC, 76 µM; in the test with UACC-257 melanoma, more than 100 µM.

For the molecule `Nc1nc2c(c(=O)[nH]1)CN(c1ccc(S(N)(=O)=O)cc1)CN2`, the TGI in the test on 786-0 renal, in the test on SNB-19 CNS, in the test with RPMI-8226 leukemia, in the test with MALME-3M melanoma, in the test with HOP-62 NSCLC and in the test on SR leukemia was more than 100 µM each time. Besides, the TGI in the test with NCI-H460 lung, with HOP-92 NSCLC and in the test with UACC-257 melanoma was more than 100 µM in each case.

For the molecule `CO/N=C(\C)c1ccc(Nc2cc(-c3ccccc3)nc3c(O)cccc23)cc1`, the GI50 was 16.3 µM in the test on 786-0 renal; 17.6 µM in the test with SF-539 CNS; 15.8 µM in the test with RPMI-8226 leukemia; 17.6 µM in the test with HOP-62 NSCLC; 5.51 µM in the test on SR leukemia; 17.5 µM with HOP-92 NSCLC. Besides, the GI50 in the test on UACC-257 melanoma is 15.9 µM. Also, the TGI came to 35.2 µM with 786-0 renal; 32.1 µM in the test on SF-539 CNS; 37 µM in the test on RPMI-8226 leukemia; 34.8 µM with HOP-62 NSCLC; 34.7 µM with SR leukemia; 33.7 µM in the test with HOP-92 NSCLC. In the test with UACC-257 melanoma, this molecule displayed a TGI of 32.3 µM.

On to `O=c1cc(-c2ccccc2)c2cc3c(=O)ccoc3cc2o1`, for which the TGI in the test with 786-0 renal, with SNB-19 CNS, in the test on SF-539 CNS, in the test with RPMI-8226 leukemia, in the test on MALME-3M melanoma and in the test on HOP-62 NSCLC was more than 100 µM each time. Further, the TGI in the test on SR leukemia, with NCI-H460 lung and in the test on UACC-257 melanoma was more than 100 µM throughout.

On to `C[C@H]1[C@H](C)CC[C@]2(C(=O)O)CC[C@]3(C)C(=CC[C@@H]4[C@@]5(C)C/C(=C/c6cccnc6)[C@H](O)C(C)(C)[C@@H]5CC[C@]43C)[C@H]12`, for which the GI50 in the test with 786-0 renal is 25.9 µM; in the test with SNB-19 CNS, 20.5 µM; with SF-539 CNS, 15.6 µM; with RPMI-8226 leukemia, 6.03 µM; in the test on MALME-3M melanoma it was 18.3 µM; in the test with HOP-62 NSCLC it was 16.4 µM. The GI50 in the test on SR leukemia is 20.7 µM; with NCI-H460 lung, 8.88 µM; with HOP-92 NSCLC, 13.8 µM; with UACC-257 melanoma, 21 µM. Further, the TGI in the test with 786-0 renal was more than 100 µM; in the test on SNB-19 CNS, more than 100 µM; in the test with SF-539 CNS, 36.3 µM; in the test with RPMI-8226 leukemia, 41.5 µM; in the test on MALME-3M melanoma it was 51.2 µM; with HOP-62 NSCLC, 55.6 µM. The TGI came to 82.8 µM in the test with SR leukemia, 26.6 µM in the test on NCI-H460 lung, 67.7 µM in the test on HOP-92 NSCLC and 81.2 µM in the test with UACC-257 melanoma.

In the case of `Cc1cc(=O)oc2cc3c(cc12)Oc1ccccc1O3`, the TGI in the test with 786-0 renal was more than 100 µM; with SNB-19 CNS, more than 100 µM; in the test with SF-539 CNS it was 56.7 µM; with RPMI-8226 leukemia, more than 100 µM; in the test with MALME-3M melanoma, more than 100 µM; in the test on HOP-62 NSCLC, more than 100 µM. The TGI in the test on SR leukemia, in the test with NCI-H460 lung, in the test on HOP-92 NSCLC and in the test with UACC-257 melanoma was more than 100 µM in each case.

In the case of `O=C(CN1CCN(c2ccccc2)CC1)N1CCc2c([nH]c3ccccc23)C1c1cccnc1` (centres undefined), the TGI is 50.8 µM with 786-0 renal; more than 100 µM in the test on SNB-19 CNS; 57.8 µM with SF-539 CNS; more than 100 µM with RPMI-8226 leukemia; more than 100 µM with MALME-3M melanoma; more than 100 µM in the test with HOP-62 NSCLC. Besides, the TGI was more than 100 µM in the test with SR leukemia, more than 100 µM in the test with NCI-H460 lung, more than 66.3 µM with HOP-92 NSCLC and more than 100 µM in the test with UACC-257 melanoma.
